How the values were obtained:
[1] = Lethal dose tested against mice; assay type: toxicity; conditions: mouse, in vivo
[2] = species: Mus musculus; assay: Effective dose against maximal electroshock (MES) induced convulsants in mice; assay type: functional
[3] = species: Mus musculus; assay: Effective dose against pentylenetetrazole (PTZ) induced anticonvulsant activity in mice; assay type: functional
[4] = test system: Mus musculus; assay: Effective dose against pentylenetetrazole (PTZ) induced anticonvulsant activity in presence of flumazenil at 10 mg/kg in mice; range: 1.5-4.1; assay type: functional
[5] = species: Mus musculus; assay: animal or person
Description: Effective dose against pentylenetetrazole (PTZ) induced anticonvulsant activity in presence of flumazenil at 10 mg/kg in mice; Range: 1.1-2

[6] = species: Mus musculus; assay: animal or person; remark: listed apart in the source

| Compound | LD50 [1] | ED50 [2] | ED50 [3] | ED50 [4] | ED50 [5] | ED50 [6] |
| --- | --- | --- | --- | --- | --- | --- |
| Nc1nnc(-c2ccccc2OCc2ccc(Cl)cc2)o1 | > 300 mg/kg | > 100 mg/kg | > 100 mg/kg |  |  |  |
| Nc1nnc(-c2ccccc2OCc2ccccc2)o1 | > 300 mg/kg | 63.2 mg/kg | 85.2 mg/kg |  |  |  |
| c1ccc(COc2ccccc2-c2nnc(SCc3ccccc3)o2)cc1 | > 300 mg/kg | > 100 mg/kg | > 100 mg/kg |  |  |  |
| CCSc1nnc(-c2ccccc2OCc2ccccc2)o1 | > 300 mg/kg | > 100 mg/kg | > 100 mg/kg |  |  |  |
| Nc1nnc(-c2ccccc2OCc2ccc(F)cc2)o1 | > 300 mg/kg | 3.3 mg/kg | 2.5 mg/kg | 2.5 mg/kg |  |  |
| Sc1nnc(-c2ccccc2OCc2ccccc2)o1 | > 300 mg/kg | ≥ 100 mg/kg | > 100 mg/kg |  |  |  |
| CSc1nnc(-c2ccccc2OCc2ccccc2)o1 | > 300 mg/kg | > 100 mg/kg | 91.2 mg/kg |  |  |  |
| CN1C(=O)CN=C(c2ccccc2)c2cc(Cl)ccc21 [DIAZEPAM] |  | 1.8 mg/kg | 1.4 mg/kg |  | 2 mg/kg | 2.6 mg/kg |

— ChEMBL document CHEMBL1141916, “Synthesis and anticonvulsant activity of new 2-substituted-5-(2-benzyloxyphenyl)-1,3,4-oxadiazoles” (Bioorg Med Chem Lett, 2005)
